The results in this text go back to article PMC10667816, “A Cell‐Penetrant Peptide Disrupting the Transcription Factor CP2c Complexes Induces Cancer‐Specific Synthetic Lethality” (Advanced Science, 2023).

Data set [1] relates to over 450 human kinases or disease‐relevant mutant variants. Description: KINOMEscan screening. The data set is classed as binding.
Data set [2] concerns α‐globin mRNA expression in iMEL cells. Description: Transcription inhibition of α‐globin mRNA expression. The format is cell-based, murine. The note with it: α‐globin (Hba-a2) mRNA, 36 h after ACP52C treatment, two independent biological replicates, read-out: TI50 (the source's name). As to the method:
To quantify mRNA expression of the gene of interest, cells were harvested, and total cellular RNA was extracted using Qiazol reagent (Qiagen, 79306). Purified RNA was dissolved in Diethyl pyrocarbonate (DEPC) water. Reverse transcription was performed using a High‐Capacity cDNA reverse transcription kit (Toyobo, FSQ‐201) in the presence of 400 ng of total RNA and 10 pmol random hexamer. PCR was performed using rTaq Plus 5X PCR master mix (Elpis‐Biotech, EBT‐1319) and the SYBR green Master Mix Kit. Amplifications were performed using a Light cycler 1.5 real‐time PCR system.^[ [43] ^] The relative mRNA expression levels were determined using the 2(−ΔCt) method, with GAPDH transcript levels serving as an internal control. Errors were calculated from at least two independent experiments. Oligonucleotide primers used in RT–qPCR are listed in Table S2 (Supporting Information).
Figure S13. The relationship between ACP52C-mediated growth inhibition and transcriptional
cell differentiation in vitro.
at 36 h after ACP52C treatment of various doses.
biological replicates. […] C)
expression in uMEL and iMEL c ells. D-G) Anticancer activity of ACP52C correlates with cellular
Modulation of GI50 values in cancer cells by
ACP52C treatment. […] Duplicated data
are expressed as means ± SD.

The test system of data set [3] is normal cells derived from humans or mouse. Kind of data set: MTT growth inhibition in normal cells. The data set is classed as cell-based, human. The note with it: concentrations up to 10 µM. The source says: Figure S3. Anticancer effect of Pep #5-2 truncated and substitution mutants
A) Names and peptide sequences of each mutant. Peptides corresponding to each Pep #5-2 truncated or substitution mutant are linked to a cell penetration peptide, iRGD (highlighted with yellow boxes). B-E) Cell growth inhibition profiles and GI50 values of each mutant in representative cancer cell lines. GI50 values estimated from duplicated data are expressed as means ± SD . Data are presented as means ± SD of two independent biological replicates. Anticancer effect of ACP52C, ACP52-51C, ACP52-52C, and ACP52-4C (B), amino acid substitution mutants of ACP52 -4C (C), and ACP52C, ACP52-4C, ACP52-31C, and ACP52-32C (D). Cell growth inhibition was teste d in cells using MTT assay over peptide dose at 48 h after peptide treatment, and GI50 values estimated from duplicated data are expressed as means ± SD. ( E) Summary of GI50 values of each mutant in representative cancer cell lines. GI 50 values estimated from duplicated data are expressed as means ± SD. Two-tailed unpaired Student’s t-tests, ***P < 0.001; ns: non-significant. […]

Another data set relates to U343 glioma cells. Description: U343 CDX mouse model. The format is in vivo. The note with it: intravenous injection every 2 or 3 days from day 14. As to the method:
Animal experiments were conducted in accordance with ethical guidelines, and all protocols were approved by the Institutional Animal Care and Use Committee under Hanyang University (approval numbers, 2014‐0016A, 2018‐0049A, 2018‐0207A, and 2019‐0169A), Chung‐Ang University (approval number, 2015‐00022), Chungbuk University (approval number, CBNUA‐1072‐17‐02), and Konkuk University (approval number, KU17130). To establish xenograft mice models, Hep3B, A431, U343, and PC9 cells were subcutaneously injected into the flank of Balb/c nude mice. For the MDA‐MB‐231 (LM1) cell line, it was implanted into the mammary fat pad of immunodeficient mice (NPG mice). […] Tumor volume was calculated using the formula of length × width^2)/2. […] The in vivo administration amount was determined based on the concentration of ACP52C confirmed at the cellular level, which was 2 µM. […] For ACP52C derivatives, the amount was adjusted to ensure a similar molar quantity of peptide injection, taking their molecular weights into account. For instance, in the case of ACP52CGK, ≈1.67 times the quantity was used compared to ACP52C to achieve an equivalent molar quantity. […] Hematoxylin and eosin (H&E)‐stained tissue sections were analyzed and photographed, and the representative histological images were recorded. […]

Data set [4] has as its system normal cells such as mesenchymal stem cells and embryonic stem cells. Kind of data set: Cell death in normal cells. The format is cell-based, human. Here is the method: performance of FQI1. Two micromoles of each Pep #5-2C and FQI1 were added to the cell culture for 2 days. Fractions of benzidine-positive stained cells were counted in MEL cells (n > 100 cells/group) treated with HMBA for 2 days. Hba-a2 gene expression at mRNA and protein levels were estimated by RT-qPCR […]
and WB, respectively. […] ANOVA […]
similar performance of Pep #5 or Pep #5-2. DNA-pull down assays for the [C4] complex (B) and the CBP […]
complexes (C). […] Two-tailed […]
formation by itself, surpassing the performance of FQI1. Co-IP assays for the [C4] complex (D) and the […]
CBP complexes (E). […] Student’s […]
than FQI1. G) Cell growth inhibition plots and GI50 values of FQI1 and ACP52C in various cancer cell lines and normal cells over peptide dose. GI50 values estimated from two independent biological replicates. […]
hESCs were cultured on the Rhodamine -labeled MEF cells. Ten micromoles of each ACP52C and FQI1 were added to the cell culture for 3 days before capturing images of cultures.

Where a SMILES comes first, the peptide text is derived from it.

Take `CC(=O)N[C@@H](CC(N)=O)C(=O)N[C@@H](Cc1ccc(O)cc1)C(=O)N1CCC[C@H]1C(=O)N[C@@H](CCC(N)=O)C(=O)N[C@@H](CCCNC(=N)N)C(=O)N1CCC[C@H]1C(=O)N[C@@H](CS)C(=O)N[C@@H](CCCNC(=N)N)C(=O)NCC(=O)N[C@@H](CC(=O)O)C(=O)N[C@@H](CCCCN)C(=O)NCC(=O)N1CCC[C@H]1C(=O)N[C@@H](CC(=O)O)C(=O)N[C@@H](CS)C(N)=O` [ACP52C] (Ac-NYPQRPCRGDKGPDC-NH2): the interactions with kinases entry in data set [1] is “did not exhibit interactions”. The IC50 in data set [2] was roughly 15 µM. Also, the growth inhibition entry in data set [3] was “did not show any growth inhibition”. In addition, in the data set with U343 glioma cells, the tumor weight entry was “significantly reduced tumor weight”.
Take `CCOc1ccccc1C1CC(=O)Nc2cc3c(cc21)OCO3` (centres unmarked) [FQI1, Factor Quinolinone Inhibitor 1, reference compound]: the “induction of cell death in normal cells” value in data set [4] is given as “potential to induce cell death”.
